This passage reports melting point and Ki results from patent US6969730B2, “Amines as histamine-3 receptor ligands and their therapeutic applications” (Abbott Laboratories, priority 2001, dated 2005).

Structures can show the parent of a compound that is named as a salt. A value given as a limit tells only on which side of the number the result lay.

As a reminder, the melting point is the temperature of the solid-liquid transition. One may read the Ki as the equilibrium dissociation constant of an inhibitor or competing ligand from its target. High values mean lower affinity, low ones higher affinity.

T1 sequence (Q9QYN8 whole entry): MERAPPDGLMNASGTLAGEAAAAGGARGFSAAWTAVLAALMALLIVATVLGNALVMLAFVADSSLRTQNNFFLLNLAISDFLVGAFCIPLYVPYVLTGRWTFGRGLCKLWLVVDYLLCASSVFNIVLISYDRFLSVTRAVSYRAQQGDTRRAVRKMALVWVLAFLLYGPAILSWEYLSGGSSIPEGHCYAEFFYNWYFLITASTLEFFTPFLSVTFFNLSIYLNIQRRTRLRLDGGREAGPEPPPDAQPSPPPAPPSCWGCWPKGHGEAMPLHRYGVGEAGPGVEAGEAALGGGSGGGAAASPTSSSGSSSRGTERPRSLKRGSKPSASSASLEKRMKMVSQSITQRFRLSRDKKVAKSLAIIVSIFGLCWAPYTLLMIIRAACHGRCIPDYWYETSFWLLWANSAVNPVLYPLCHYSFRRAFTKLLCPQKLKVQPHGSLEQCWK

System in one data set: not given
Experiment: not given
Details: not given
Regarding `CC[C@@H]1CCCN1CCc1cc2cc(-c3ccc(C#N)cc3)ccc2o1` (as salt: tartrate) [Example 163, 4-(2-{2-[(2R)-2-ethyl-1-pyrrolidinyl]ethyl}-1-benzofuran-5-yl)benzonitrile], the melting point is 147 °C.

As to `N#Cc1ccc(-c2ccc3oc(CCN4CCC[C@H]4CF)cc3c2)cc1` (as salt: tartrate) [Example 164, 4-(2-{2-[(2S)-2-(fluoromethyl)-1-pyrrolidinyl]ethyl}-1-benzofuran-5-yl)benzonitrile], the melting point came to 156.3 °C.

As for `N#Cc1ccc(-c2ccc3oc(CCN)cc3c2)cc1` [Example 162, 4-[2-(2-aminoethyl)-1-benzofuran-5-yl]benzonitrile], the melting point lay within 118 to 120 °C.

Another data set has as its target T1, histamine-3 receptors (H3 receptor) (Rattus norvegicus, UniProt Q9QYN8).
T1 construct: from tissue; host or cells: male Sprague-Dawley rat brain cortex membranes
Description: (3H)-N-α-methylhistamine binding to rat cortical membranes (histamine-3 receptor ligands). The note with it: male Sprague-Dawley rat brain cortical membranes; (3H)-N-α-methylhistamine ~0.6 nM; 30 minutes at 25° C.; Cheng-Prusoff. As to the method: Briefly, male Sprague-Dawley rat brain cortices were homogenized (1 g tissue/10 mL buffer) in 50 mM Tris-HCl/5 mM EDTA containing protease inhibitor cocktail (Calbiochem) using a polytron set at 20,500 rpm. Homogenates were centrifuged for 20 minutes at 40,000×g. The supernatant was decanted, and pellets were weighed. The pellet was resuspended by polytron homogenization in 40 mL 50 mM Tris-HCl/5 mM EDTA with protease inhibitors and centrifuged for 20 minutes at 40,000×g. […] Rat cortical membranes (12 mg wet weight/tube) were incubated with (^3H)-N-α-methylhistamine (˜0.6 nM) with or without H3 receptor antagonists in a total incubation volume of 0.5 mL of 50 mM Tris-HCl/5 mM EDTA (pH 7.7). Test compounds were dissolved in DSMO to provide a 20 mM solution, serially diluted and then added to the incubation mixture prior to initiating the incubation assay by addition of the membranes. Thioperamide (3 μM) was used to determine nonspecific binding. Binding incubations were conducted for 30 minutes at 25° C. and terminated by addition of 2 mL of ice cold 50 mM Tris-HCl (pH 7.7) and filtration through 0.3% polyethylenimine-soaked Unifilter plates (Packard). These filters were washed 4 additional times with 2 mL of ice-cold 50 mM Tris-HCl and dried for 1 hour. Radioactivity was determined using liquid scintillation counting techniques. Results were analyzed by Hill transformation and Ki values were determined using the Cheng-Prusoff equation.
Take `C[C@@H]1CCCN1CCc1cc2cc(-c3cccc(C(=O)c4cccc(F)c4)c3)ccc2o1` [Example 151, (3-fluorophenyl)[3-(2-{2-[(2R)-2-methyl-1-pyrrolidinyl]ethyl}-1-benzofuran-5-yl)phenyl]methanone]: affinity was put at a Ki of 53 nM.

Compound `C[C@@H]1CCCN1CCc1cc2cc(-c3cccc(CO)c3)ccc2o1` [Example 152, [3-(2-{2-[(2R)-2-methyl-1-pyrrolidinyl]ethyl}-1-benzofuran-5-yl)phenyl]methanol] returned a Ki of 2.6 nM.

`C[C@@H]1CCCN1CCc1cc2cc(Cc3ccccc3)ccc2o1` [Example 153, (2R)-1-[2-(5-benzyl-1-benzofuran-2-yl)ethyl]-2-methylpyrrolidine] showed a Ki of 32 nM.

Compound `C[C@@H]1CCCN1CCc1cc2cc(-n3ccnc3)ccc2o1` [Example 154, 1-(2-{2-[(2R)-2-methyl-1-pyrrolidinyl]ethyl}-1-benzofuran-5-yl)-1H-imidazole] displayed a Ki of 2 nM.

In the case of `Cc1cc(-c2ccc3oc(CCN4CCC[C@H]4C)c(Br)c3c2)ccc1C#N` [Example 155, 4-(3-bromo-2-{2-[(2R)-2-methyl-1-pyrrolidinyl]ethyl}-1-benzofuran-5-yl)-2-methylbenzonitrile], the Ki came to 16 nM.

Compound `C[C@@H]1CCCN1CCc1oc2ccc(-c3ccc(C#N)cc3)cc2c1Cl` [Example 156A, 4-(3-chloro-2-{2-[(2R)-2-methyl-1-pyrrolidinyl]ethyl}-1-benzofuran-5-yl)benzonitrile] returned a Ki of 3.7 nM.

As for `C[C@@H]1CCCN1CCc1oc2cc(Cl)c(-c3ccc(C#N)cc3)cc2c1Cl` [Example 156B, 4-(3,6-dichloro-2-{2-[(2R)-2-methyl-1-pyrrolidinyl]ethyl}-1-benzofuran-5-yl)benzonitrile], the affinity corresponds to a Ki of 9.7 nM.

In turn, `C[C@@H]1CCCN1CCc1oc2ccc(-c3ccc(C#N)cc3)cc2c1I` [Example 157, 4-(3-iodo-2-{2-[(2R)-2-methyl-1-pyrrolidinyl]ethyl}-1-benzofuran-5-yl)benzonitrile] returned a Ki of 8.4 nM.

For the compound `C[C@@H]1CCC(=O)N1CCc1cc2cc(-c3ccc(C#N)cc3)ccc2o1` [Example 158, 4-(2-{2-[(2R)-2-methyl-5-oxo-1-pyrrolidinyl]ethyl}-1-benzofuran-5-yl)benzonitrile], the Ki is greater than 1000 nM.

For the compound `CC(=O)c1c(CCN2CCC[C@H]2C)oc2ccc(-c3ccc(C#N)cc3)cc12` [Example 159, 4-(3-acetyl-2-{2-[(2R)-2-methyl-1-pyrrolidinyl]ethyl}-1-benzofuran-5-yl)benzonitrile], the Ki amounted to 14 nM.

The compound `C[C@@H]1CCCN1CCc1cc2cc(-c3ccc(C(=O)C4CC4)cc3)ccc2o1` [Example 160, cyclopropyl[4-(2-{2-[(2R)-2-methyl-1-pyrrolidinyl]ethyl}-1-benzofuran-5-yl)phenyl]methanone] displayed a Ki of 7.6 nM.

`Cc1noc(C)c1-c1ccc2oc(CCN3CCC[C@H]3C)cc2c1` [Example 161, 3,5-dimethyl-4-(2-{2-[(2R)-2-methyl-1-pyrrolidinyl]ethyl}-1-benzofuran-5-yl)isoxazole] registered a Ki of 1.6 nM.

Regarding `N#Cc1ccc(-c2ccc3oc(CCN)cc3c2)cc1` [Example 162, 4-[2-(2-aminoethyl)-1-benzofuran-5-yl]benzonitrile], the Ki came out at 581 nM.

`CC[C@@H]1CCCN1CCc1cc2cc(-c3ccc(C#N)cc3)ccc2o1` [Example 163, 4-(2-{2-[(2R)-2-ethyl-1-pyrrolidinyl]ethyl}-1-benzofuran-5-yl)benzonitrile]: the affinity, expressed as Ki, was 3.7 nM.

The compound `N#Cc1ccc(-c2ccc3oc(CCN4CCC[C@H]4CF)cc3c2)cc1` [Example 164, 4-(2-{2-[(2S)-2-(fluoromethyl)-1-pyrrolidinyl]ethyl}-1-benzofuran-5-yl)benzonitrile] showed a Ki of 24 nM.

Take `C[C@@H]1CCCN1CCc1cc2cc(-c3ccc(C#N)cc3)ccc2s1` [Example 165, 4-(2-{2-[(2R)-2-methyl-1-pyrrolidinyl]ethyl}-1-benzothien-5-yl)benzonitrile]: the affinity corresponds to a Ki of 16.8 nM.

In the case of “(2R)-1-{2-[5-(4-methoxyphenyl)-1-benzofuran-2-yl]ethyl}-2-methylpyrrolidine [Example 121]”, the affinity, expressed as Ki, was 51 nM.

The compound “(2S)-1-(2-{5-[5-(4-morpholinylcarbonyl)-2-pyridinyl]-1-benzofuran-2-yl}ethyl)-2-pyrrolidinol [Example 62]” had a Ki of 112 nM.
